Reference: PubChem BioAssay (NCI)
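Interpolation was linear, between the two tested concentrations surrounding the appropriate level; five concentrations were tested over 48 hours in 96-well plates. The concentration for 50% growth inhibition is given as GI50. Definition used: TGI = concentration required for complete inhibition of growth.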

Legend:
Assay in all cases: NCI-60 cell line screen, 48 h
A498 renal = system: A498 renal
SK-MEL-5 melanoma = system: SK-MEL-5 melanoma
K-562 leukemia = system: K-562 leukemia
IGROV1 ovarian = system: IGROV1 ovarian
RXF 393 renal = system: RXF 393 renal
HL-60(TB) leukemia = system: HL-60(TB) leukemia
UO-31 renal = system: UO-31 renal
SW-620 colon = system: SW-620 colon
SNB-19 CNS = system: SNB-19 CNS
OVCAR-8 ovarian = system: OVCAR-8 ovarian
SK-MEL-28 melanoma = system: SK-MEL-28 melanoma
M14 melanoma = system: M14 melanoma
OVCAR-5 ovarian = system: OVCAR-5 ovarian
RPMI-8226 leukemia = system: RPMI-8226 leukemia
SNB-75 CNS = system: SNB-75 CNS
HCT-15 colon = system: HCT-15 colon
NCI/ADR-RES ovarian = system: NCI/ADR-RES ovarian
SK-OV-3 ovarian = system: SK-OV-3 ovarian
NCI-H23 lung = system: NCI-H23 lung
SN12C renal = system: SN12C renal
LOX IMVI melanoma = system: LOX IMVI melanoma
OVCAR-3 ovarian = system: OVCAR-3 ovarian
BT-549 breast = system: BT-549 breast
MCF7 breast = system: MCF7 breast
SF-539 CNS = system: SF-539 CNS
HOP-92 NSCLC = system: HOP-92 NSCLC
SF-268 CNS = system: SF-268 CNS
A549 NSCLC = system: A549 NSCLC
KM12 colon = system: KM12 colon
PC-3 prostate = system: PC-3 prostate
SR leukemia = system: SR leukemia
786-0 renal = system: 786-0 renal
TK-10 renal = system: TK-10 renal
U251 CNS = system: U251 CNS
HT29 colon = system: HT29 colon
HS 578T breast = system: HS 578T breast
UACC-62 melanoma = system: UACC-62 melanoma
EKVX NSCLC = system: EKVX NSCLC
NCI-H460 lung = system: NCI-H460 lung
CAKI-1 renal = system: CAKI-1 renal
MOLT-4 leukemia = system: MOLT-4 leukemia
OVCAR-4 ovarian = system: OVCAR-4 ovarian
NCI-H226 lung = system: NCI-H226 lung
ACHN renal = system: ACHN renal
CCRF-CEM leukemia = system: CCRF-CEM leukemia
HCC-2998 colon = system: HCC-2998 colon
SK-MEL-2 melanoma = system: SK-MEL-2 melanoma
HOP-62 NSCLC = system: HOP-62 NSCLC
COLO 205 colon = system: COLO 205 colon
UACC-257 melanoma = system: UACC-257 melanoma
MDA-MB-231 breast = system: MDA-MB-231 breast
NCI-H522 lung = system: NCI-H522 lung
HCT-116 colon = system: HCT-116 colon
DU-145 prostate = system: DU-145 prostate
MALME-3M melanoma = system: MALME-3M melanoma
T-47D breast = system: T-47D breast
SF-295 CNS = system: SF-295 CNS
MDA-MB-435 = system: MDA-MB-435

With `O=C1CCCC2=C1CC1=C(CCCC1=O)N2c1ccccc1C(=O)O` the TGI (A498 renal) was greater than 100 µM, the TGI (SK-MEL-5 melanoma) was greater than 100 µM and the TGI (K-562 leukemia) was greater than 100 µM. For the same compound, the TGI (IGROV1 ovarian) was greater than 100 µM, the TGI (RXF 393 renal) was greater than 100 µM and the TGI (HL-60(TB) leukemia) was greater than 100 µM. The TGI (UO-31 renal) was greater than 100 µM, the TGI (SW-620 colon) was greater than 100 µM and the TGI (SNB-19 CNS) was greater than 100 µM. The TGI (OVCAR-8 ovarian) was greater than 100 µM, the TGI (SK-MEL-28 melanoma) was greater than 100 µM and the TGI (M14 melanoma) was greater than 100 µM. The TGI (OVCAR-5 ovarian) was greater than 100 µM, the TGI (RPMI-8226 leukemia) was greater than 100 µM and the TGI (SNB-75 CNS) was greater than 100 µM. For the same compound, the TGI (HCT-15 colon) was greater than 100 µM, the TGI (NCI/ADR-RES ovarian) was greater than 100 µM and the TGI (SK-OV-3 ovarian) was greater than 100 µM. The TGI (NCI-H23 lung) was greater than 100 µM, the TGI (SN12C renal) was greater than 100 µM and the TGI (LOX IMVI melanoma) was greater than 100 µM. For the same compound, the TGI (OVCAR-3 ovarian) was greater than 100 µM, the TGI (BT-549 breast) was greater than 100 µM and the TGI (MCF7 breast) was greater than 100 µM. For the same compound, the TGI (SF-539 CNS) was greater than 100 µM, the TGI (HOP-92 NSCLC) was greater than 100 µM and the TGI (SF-268 CNS) was greater than 100 µM. The TGI (A549 NSCLC) was greater than 100 µM, the TGI (KM12 colon) was greater than 100 µM and the TGI (PC-3 prostate) was greater than 100 µM. The TGI (SR leukemia) was greater than 100 µM, the TGI (786-0 renal) was greater than 100 µM and the TGI (TK-10 renal) was greater than 100 µM. The TGI (U251 CNS) was greater than 100 µM, the TGI (HT29 colon) was greater than 100 µM and the TGI (HS 578T breast) was greater than 100 µM. For the same compound, the TGI (UACC-62 melanoma) was greater than 100 µM, the TGI (EKVX NSCLC) was greater than 100 µM and the TGI (NCI-H460 lung) was greater than 100 µM. The TGI (CAKI-1 renal) was greater than 100 µM, the TGI (MOLT-4 leukemia) was greater than 100 µM and the TGI (OVCAR-4 ovarian) was greater than 100 µM. It also gave a TGI (NCI-H226 lung) greater than 100 µM, a TGI (ACHN renal) greater than 100 µM and a TGI (CCRF-CEM leukemia) greater than 100 µM. For the same compound, the TGI (HCC-2998 colon) was greater than 100 µM.
Compound `CCOC(=O)C(Cc1c[nH]c2ccc([N+](=O)[O-])cc12)(NC(C)=O)C(=O)OCC` has a GI50 (SK-MEL-2 melanoma) greater than 1000 µM, a TGI (SK-MEL-2 melanoma) greater than 1000 µM and a GI50 (HOP-62 NSCLC) of 304 µM. The TGI (HOP-62 NSCLC) was greater than 606 µM, the GI50 (A498 renal) was 8.18 µM and the TGI (A498 renal) was greater than 390 µM. For the same compound, the GI50 (COLO 205 colon) was greater than 1000 µM, the TGI (COLO 205 colon) was greater than 1000 µM and the GI50 (K-562 leukemia) was 47.7 µM. For the same compound, the TGI (K-562 leukemia) was greater than 1000 µM, the GI50 (IGROV1 ovarian) was 68.7 µM and the TGI (IGROV1 ovarian) was greater than 833 µM. The GI50 (RXF 393 renal) was 66.4 µM, the TGI (RXF 393 renal) was 261 µM and the GI50 (UACC-257 melanoma) was greater than 1000 µM. The TGI (UACC-257 melanoma) was greater than 1000 µM, the GI50 (UO-31 renal) was 80.3 µM and the TGI (UO-31 renal) was greater than 1000 µM. For the same compound, the GI50 (MDA-MB-231 breast) was 140 µM, the TGI (MDA-MB-231 breast) was greater than 1000 µM and the GI50 (SW-620 colon) was greater than 1000 µM. It also gave a TGI (SW-620 colon) greater than 1000 µM, a GI50 (NCI-H522 lung) of 79.5 µM and a TGI (NCI-H522 lung) of 460 µM. The GI50 (SNB-19 CNS) was 138 µM, the TGI (SNB-19 CNS) was 598 µM and the GI50 (OVCAR-8 ovarian) was 96.7 µM. It also gave a TGI (OVCAR-8 ovarian) greater than 870 µM, a GI50 (SK-MEL-28 melanoma) of 975 µM and a TGI (SK-MEL-28 melanoma) greater than 1000 µM. The GI50 (M14 melanoma) was greater than 1000 µM, the TGI (M14 melanoma) was greater than 1000 µM and the GI50 (OVCAR-5 ovarian) was greater than 1000 µM. For the same compound, the TGI (OVCAR-5 ovarian) was greater than 1000 µM, the GI50 (HCT-116 colon) was 139 µM and the TGI (HCT-116 colon) was greater than 1000 µM. For the same compound, the GI50 (SNB-75 CNS) was 59.2 µM, the TGI (SNB-75 CNS) was 215 µM and the GI50 (HCT-15 colon) was greater than 1000 µM. The TGI (HCT-15 colon) was greater than 1000 µM, the GI50 (NCI/ADR-RES ovarian) was 53.6 µM and the TGI (NCI/ADR-RES ovarian) was greater than 1000 µM. For the same compound, the GI50 (DU-145 prostate) was greater than 714 µM, the TGI (DU-145 prostate) was greater than 1000 µM and the GI50 (SK-OV-3 ovarian) was 184 µM. For the same compound, the TGI (SK-OV-3 ovarian) was greater than 907 µM, the GI50 (NCI-H23 lung) was 85 µM and the TGI (NCI-H23 lung) was greater than 1000 µM. For the same compound, the GI50 (SN12C renal) was 502 µM, the TGI (SN12C renal) was greater than 1000 µM and the GI50 (LOX IMVI melanoma) was greater than 419 µM. It also gave a TGI (LOX IMVI melanoma) greater than 1000 µM, a GI50 (OVCAR-3 ovarian) of 75.3 µM and a TGI (OVCAR-3 ovarian) greater than 1000 µM. For the same compound, the GI50 (BT-549 breast) was 44.5 µM, the TGI (BT-549 breast) was 426 µM and the GI50 (MALME-3M melanoma) was 114 µM. For the same compound, the TGI (MALME-3M melanoma) was greater than 1000 µM, the GI50 (T-47D breast) was 50.1 µM and the TGI (T-47D breast) was greater than 1000 µM. For the same compound, the GI50 (MCF7 breast) was 81 µM, the TGI (MCF7 breast) was greater than 1000 µM and the GI50 (SF-539 CNS) was 134 µM. It also gave a TGI (SF-539 CNS) greater than 473 µM, a TGI (HOP-92 NSCLC) greater than 423 µM and a GI50 (SF-268 CNS) of 188 µM. For the same compound, the TGI (SF-268 CNS) was greater than 1000 µM, the GI50 (A549 NSCLC) was 67.3 µM and the TGI (A549 NSCLC) was greater than 1000 µM. It also gave a GI50 (KM12 colon) greater than 1000 µM, a TGI (KM12 colon) greater than 1000 µM and a GI50 (SF-295 CNS) of 30.5 µM. The TGI (SF-295 CNS) was greater than 1000 µM, the GI50 (786-0 renal) was 143 µM and the TGI (786-0 renal) was greater than 802 µM. The GI50 (TK-10 renal) was 186 µM, the TGI (TK-10 renal) was greater than 1000 µM and the GI50 (U251 CNS) was 134 µM. The TGI (U251 CNS) was greater than 564 µM, the GI50 (MDA-MB-435) was greater than 1000 µM and the TGI (MDA-MB-435) was greater than 1000 µM. It also gave a GI50 (HT29 colon) greater than 1000 µM, a TGI (HT29 colon) greater than 1000 µM and a GI50 (HS 578T breast) of 80.8 µM. The TGI (HS 578T breast) was greater than 765 µM, the GI50 (UACC-62 melanoma) was 40.5 µM and the TGI (UACC-62 melanoma) was greater than 1000 µM. For the same compound, the GI50 (EKVX NSCLC) was greater than 1000 µM, the TGI (EKVX NSCLC) was greater than 1000 µM and the GI50 (NCI-H460 lung) was greater than 306 µM. It also gave a TGI (NCI-H460 lung) greater than 1000 µM, a GI50 (CAKI-1 renal) of 34.2 µM and a TGI (CAKI-1 renal) greater than 1000 µM. It also gave a GI50 (MOLT-4 leukemia) of 35.2 µM, a TGI (MOLT-4 leukemia) greater than 1000 µM and a GI50 (NCI-H226 lung) greater than 546 µM. The TGI (NCI-H226 lung) was greater than 1000 µM, the GI50 (ACHN renal) was 151 µM and the TGI (ACHN renal) was greater than 1000 µM. The GI50 (HCC-2998 colon) was greater than 1000 µM and the TGI (HCC-2998 colon) was greater than 1000 µM.
